Ee % and CC50 data for three compounds are collected here from patent US9944598B2, “Mono- or di-substituted indole derivatives as dengue viral replication inhibitors” (priority 2014, dated 2018).

The nature of data set [1]: Chiral stability at pH 7.4 (enantiomeric excess by Chiral SFC). Format: physicochemical. On the procedure:
The chiral stability of Enantiomer 1A (R=OMe) was evaluated by determination of the enantiomeric excess (ee %) after incubation for 24 h and 48 h in a buffered solution at pH 7.4 at 40° C. and 60° C. To assess the influence of the methoxy-substituent of Enantiomer 1A (R=OMe) on the stability against racemization, the chiral stability of Enantiomer 1′A (R═H) was tested under the same conditions.
To this end, 5 μM buffered (pH=7.4) solutions of 1A and 1′A were prepared by mixing 25 μL of a 100 μM solution of 1A or 1′A in DMSO with 475 μL aqueous buffer pH 7.4. Samples were taken 24 h and 48 h after incubation at 40° C. and 60° C. The analytical samples were analyzed by Chiral SFC (MS detection) and the chiral purity was expressed as the enantiomeric excess (ee %=% enantiomer A−% enantiomer B).

In data set [2] the test system is Vero cells. Kind of data set: in vitro. The note with it: African green monkey. Format: cell-based.

SMILES strings stand for the structures.

As to `COc1cc(NC(C(=O)c2c[nH]c3cc(F)ccc23)c2ccc(Cl)cc2OC)cc(OCCO)c1` (single isomer, unassigned) [Compound 1A, 2-(4-chloro-2-methoxyphenyl)-1-(6-fluoro-1H-indol-3-yl)-2-((3-(2-hydroxyethoxy)-5-methoxyphenyl)amino)ethanone], the ee % was 100% in data set [1] (5 μM buffered solution pH 7.4, 40° C., 24 h); 100% in data set [1] (5 μM buffered solution pH 7.4, 40° C., 48 h); 99% in data set [1] (5 μM buffered solution pH 7.4, 60° C., 24 h); 96% in data set [1] (5 μM buffered solution pH 7.4, 60° C., 48 h).

Take `COc1cc(NC(C(=O)c2c[nH]c3cc(F)c(F)cc23)c2ccc(Cl)cc2OC)cc(OCCO)c1` (single isomer, unassigned) [Compound 9A, 2-(4-chloro-2-methoxyphenyl)-1-(5,6-difluoro-1H-indol-3-yl)-2-((3-(2-hydroxyethoxy)-5-methoxyphenyl)amino)ethanone]: in data set [2], it took 6.5 µM to reach half-maximal cytotoxicity (CC50).

As to `COc1cc(NC(C(=O)c2c[nH]c3c(F)c(F)ccc23)c2ccc(Cl)cc2OC)cc(OCCO)c1` (single isomer, unassigned) [Compound 11B, 2-(4-chloro-2-methoxyphenyl)-1-(6,7-difluoro-1H-indol-3-yl)-2-((3-(2-hydroxyethoxy)-5-methoxyphenyl)amino)ethanone], in data set [2], it took 4.1 µM to reach half-maximal cytotoxicity (CC50).
